In patent US7811352B2, “Fertilizer compositions and methods of using” (priority 2005, dated 2010):
Marks after values point to notes of the source that are not given here.

Experiments:
Assay type in all cases: in vivo
Bermuda grass [1] = experiment: Turfgrass quality and color ratings, Bermuda grass fairway (Example 10); design: key: 1-10; 10 = dark green turf, 1 = dead/brown, 6 = minimally acceptable; details: scale 1-10
Excerpt: (§1) In this Example, the effect of a fertilizer comprising lysine on warm season turfgrass growth was examined. The effects of lysine (HCl) and LIQUID LYSINE on a common type of golf course fairway quality turfgrass (Bermuda grass) were compared with those of urea and Milorganite.
(§2) Fifteen fertilizer treatments comprising three concentrations of each fertilizer composition (Milorganite (N—P—K, 6-2-0), urea (N—P—K, 46-0-0), LIQUID LYSINE (N—P—K, 10-2-1), and both granular and aqueous lysine (HCl) (N—P—K, 15-2-1)) were prepared and applied to 4 replications of Bermuda grass. The aqueous lysine (HCl) was dissolved in water prior to application. Each fertilizer treatment was applied in concentrations of 0.5 lb N/1000 ft^2/month, 1.0 lb N/1000 ft^2/month and 3.0 lb N/1000 ft^2/month. The urea, LIQUID LYSINE and aqueous lysine (HCl) were applied as foliar liquids, while Milorganite and granular lysine (HCl) were applied as granular fertilizers Plot size was 1 m×2 m set up as a randomized complete block. Plots were mowed at 0.5 inches before fertilizer application. Irrigation (0.15 inch) was applied following application. Plots were rated for turfgrass quality and color (scale of 1-10 where 10=dark green turf, 1=dead/brown turf, and 6=minimally acceptable turf) and phytotoxicity (scale of 0-5, where 5=worst, and 2=minimally objectionable) throughout the study period. Quality, color, and phytotoxicity were measured on 2 days before application (day −2) and day 2, day 5, day 15 and day 21 after application. All data was subject to statistical analysis and significant means were determined. Average turfgrass quality ratings for the treatments are presented in Table 9 and the quality results for application rates of 1.0 lb N/1000 ft^2/month are graphically presented in FIG. 4.

Bermuda grass [2] = experiment: Phytotoxicity rating, Bermuda grass fairway (Example 10); details: scale 0-5, 5=worst
Excerpt: as §1, §2

[3] = test system: lawn height, Kentucky bluegrass; experiment: Color rating of lawn height Kentucky bluegrass after fertilization (Example 5); details: about two weeks after application
Procedure: (§3) In this Example, the efficacy of fertilizers on lawn height, Kentucky bluegrass was examined. Fertilizer compositions according to several embodiments of the present disclosure were prepared and compared to the commercial fertilizer products, urea 46-0-0 (granular) fertilizer, Lebanon fertilizer 21-0-12 (granular, commercially available from Lebanon Seaboard Corporation, Lebanon, Pa.) and Milorganite 6-2-0 (granular, commercially available from Milorganite, Milwaukee, Wis.). The fertilizer compositions were applied to the turf grass prior to winter dormancy at a rate equivalent to supplying about 1.0 pounds of nitrogen (N) per 1000 square feet. Each of the fertilizer compositions were applied at substantially equal rates of lbs of nitrogen (N) per 1000 square feet. Table 2 illustrates the response of lawn height, Kentucky bluegrass to fertilization using various exemplary fertilizers of the present invention, taken about two weeks after application of the fertilizer. The letters in the Color and Injury columns correspond to Duncan's Multiple Range Test.

[4] = test system: fairway height, creeping bentgrass; experiment: Color rating of fairway height creeping bentgrass after fertilization (Example 6); details: about two weeks after application
Procedure: (§4) In this Example, the efficacy of fertilizers on fairway height, creeping bentgrass was examined. Fertilizer compositions according to several embodiments of the present disclosure were prepared and compared to the commercial fertilizer products, urea 46-0-0 (granular) fertilizer, Lebanon fertilizer 21-0-12 (granular, commercially available from Lebanon Seaboard Corporation, Lebanon, Pa.) and Milorganite 6-2-0 (granular, commercially available from Milorganite, Milwaukee, Wis.). The fertilizer compositions were applied to turf prior to winter dormancy at a rate equivalent to supplying about 1.0 pounds of nitrogen (N) per 1000 square feet. Each of the fertilizer compositions were applied at substantially equal rates of lbs of nitrogen (N) per 1000 square feet. Table 3 illustrates the response of fairway height, creeping bentgrass to fertilization using various exemplary fertilizers of the present invention, taken about two weeks after application of the fertilizer. The letters in the Color and Injury columns correspond to Duncan's Multiple Range Test. Numbers (means) in a column followed by the same letter are not statistically different at P=0.05.

[5] = test system: lawn height, Kentucky bluegrass; experiment: Injury rating of lawn height Kentucky bluegrass after fertilization (Example 5); details: about two weeks after application
Procedure: as §3

[6] = test system: fairway height, creeping bentgrass; experiment: Injury rating of fairway height creeping bentgrass after fertilization (Example 6); details: about two weeks after application
Procedure: as §4

[7] = Monthly Rate 0.5 lbs N/1000 ft^2, Day 2
[8] = Monthly Rate 0.5 lbs N/1000 ft^2, Day 5
[9] = Monthly Rate 0.5 lbs N/1000 ft^2, Day 15
[10] = Monthly Rate 0.5 lbs N/1000 ft^2, Day 21
[11] = Monthly Rate 0.5 lbs N/1000 ft^2, Day −2 (before application)
[12] = Monthly Rate 1.0 lbs N/1000 ft^2, Day 2
[13] = Monthly Rate 1.0 lbs N/1000 ft^2, Day 5
[14] = Monthly Rate 1.0 lbs N/1000 ft^2, Day 15
[15] = Monthly Rate 1.0 lbs N/1000 ft^2, Day 21
[16] = Monthly Rate 1.0 lbs N/1000 ft^2, Day −2 (before application)
[17] = Monthly Rate 3.0 lbs N/1000 ft^2, Day 2
[18] = Monthly Rate 3.0 lbs N/1000 ft^2, Day 5
[19] = Monthly Rate 3.0 lbs N/1000 ft^2, Day 15
[20] = Monthly Rate 3.0 lbs N/1000 ft^2, Day 21
[21] = Monthly Rate 3.0 lbs N/1000 ft^2, Day −2 (before application)
[22] = 1.09 Lbs. product/1000 square feet
[23] = 2.17 Lbs. product/1000 square feet
[24] = 6.51 Lbs. product/1000 square feet

**Q.** What does the source list for `NC(N)=O` [Urea, urea, reference compound]?
**A.** Color Ratings - Bermuda Grass (Bermuda grass [1]; [7]): 7.4; Quality Ratings - Bermuda Grass (Bermuda grass [1]; [7]): 7.5ab; Color Ratings - Bermuda Grass (Bermuda grass [1]; [8]): 7.6efg; Quality Ratings - Bermuda Grass (Bermuda grass [1]; [8]): 7.5cd; Color Ratings - Bermuda Grass (Bermuda grass [1]; [9]): 7.4de; Quality Ratings - Bermuda Grass (Bermuda grass [1]; [9]): 7.5de; Color Ratings - Bermuda Grass (Bermuda grass [1]; [10]): 7.6cd; Quality Ratings - Bermuda Grass (Bermuda grass [1]; [10]): 7.5f; Color Ratings - Bermuda Grass (Bermuda grass [1]; [11]): 6.5; Quality Ratings - Bermuda Grass (Bermuda grass [1]; [11]): 6.3; Color Ratings - Bermuda Grass (Bermuda grass [1]; [12]): 7.6; Quality Ratings - Bermuda Grass (Bermuda grass [1]; [12]): 7.5ab; Color Ratings - Bermuda Grass (Bermuda grass [1]; [13]): 8.0def; Quality Ratings - Bermuda Grass (Bermuda grass [1]; [13]): 7.9abc; Color Ratings - Bermuda Grass (Bermuda grass [1]; [14]): 7.3de; Quality Ratings - Bermuda Grass (Bermuda grass [1]; [14]): 7.6de; Color Ratings - Bermuda Grass (Bermuda grass [1]; [15]): 7.6cd; Quality Ratings - Bermuda Grass (Bermuda grass [1]; [15]): 7.6ef; Color Ratings - Bermuda Grass (Bermuda grass [1]; [16]): 6.5; Quality Ratings - Bermuda Grass (Bermuda grass [1]; [16]): 6.3; Color Ratings - Bermuda Grass (Bermuda grass [1]; [17]): 8.0; Quality Ratings - Bermuda Grass (Bermuda grass [1]; [17]): 8.1a; Color Ratings - Bermuda Grass (Bermuda grass [1]; [18]): 8.8ab; Quality Ratings - Bermuda Grass (Bermuda grass [1]; [18]): 8.3ab; Color Ratings - Bermuda Grass (Bermuda grass [1]; [19]): 7.5cde; Quality Ratings - Bermuda Grass (Bermuda grass [1]; [19]): 7.9de; Color Ratings - Bermuda Grass (Bermuda grass [1]; [20]): 7.9bcd; Quality Ratings - Bermuda Grass (Bermuda grass [1]; [20]): 7.8def; Color Ratings - Bermuda Grass (Bermuda grass [1]; [21]): 6.4; Quality Ratings - Bermuda Grass (Bermuda grass [1]; [21]): 6.1; Phytotoxicity - Bermuda Grass (Bermuda grass [2]; [7]): 0.0b; Phytotoxicity - Bermuda Grass (Bermuda grass [2]; [8]): 0; Phytotoxicity - Bermuda Grass (Bermuda grass [2]; [9]): 0; Phytotoxicity - Bermuda Grass (Bermuda grass [2]; [10]): 0; Phytotoxicity - Bermuda Grass (Bermuda grass [2]; [11]): 0; Phytotoxicity - Bermuda Grass (Bermuda grass [2]; [12]): 0.0b; Phytotoxicity - Bermuda Grass (Bermuda grass [2]; [13]): 0; Phytotoxicity - Bermuda Grass (Bermuda grass [2]; [14]): 0; Phytotoxicity - Bermuda Grass (Bermuda grass [2]; [15]): 0; Phytotoxicity - Bermuda Grass (Bermuda grass [2]; [16]): 0; Phytotoxicity - Bermuda Grass (Bermuda grass [2]; [17]): 0.0b; Phytotoxicity - Bermuda Grass (Bermuda grass [2]; [18]): 0; Phytotoxicity - Bermuda Grass (Bermuda grass [2]; [19]): 0; Phytotoxicity - Bermuda Grass (Bermuda grass [2]; [20]): 0; Phytotoxicity - Bermuda Grass (Bermuda grass [2]; [21]): 0; Color 1-9 (9 = dark green) [3, 22]: 7.0; Color 1-9 (9 = dark green) [3, 23]: 7.3; Color 1-9 (9 = dark green) [3, 24]: 7.7; Color 1-9 (9 = dark green) [4, 22]: 6.7; Color 1-9 (9 = dark green) [4, 23]: 7.0; Color 1-9 (9 = dark green) [4, 24]: 7.7; Injury 1-9 (9 = no injury) [5, 22]: 8.3; Injury 1-9 (9 = no injury) [5, 23]: 8.7; Injury 1-9 (9 = no injury) [5, 24]: 8.7; Injury 1-9 (9 = no injury) [6, 22]: 8.7^a,b; Injury 1-9 (9 = no injury) [6, 23]: 7.7^a,b; Injury 1-9 (9 = no injury) [6, 24]: 8.7^a,b
